The values below come from patent US20230061835A1, “11-OXO CUCURBITANES AND THEIR USE AS FLAVOR MODIFIERS” (Firmenich SA, priority 2020, published 2023).

Assay [1] is described as follows: Sensory testing by trained panel: umami taste. It counts as in vivo, human. As to conditions: panel of 20 trained panelists; test compound at 40 ppm; score on scale −5 (strong masking) to 5 (strong enhancing), 0 = reference water solution with 0.25% NaCl and 0.05% MSG. Here is the method: (§1) Each of Compound 101, Compound 102, Compound 103, Compound 104, and Compound 105 was tested for taste properties, particularly umami and saltiness. A panel of twenty (20) trained panelists evaluated the samples of each test compound at 40 ppm for umami taste properties and saltiness taste properties, and scored the solutions on a scale ranging from −5 to 5 (with −5 denoting a strong masking effect, and 5 denoting a strong enhancing effect, and 0 representing the intensity of a reference water solution containing 0.25% sodium chloride (NaCl) and 0.05% monosodium glutamate (MSG), respectively).

A short description of assay [2]: Sensory testing by trained panel: saltiness taste. It counts as in vivo, human. As to conditions: panel of 20 trained panelists; test compound at 40 ppm; score on scale −5 (strong masking) to 5 (strong enhancing), 0 = reference water solution with 0.25% NaCl and 0.05% MSG. Here is the method:
as §1

Regarding `C[C@H](CC[C@@H](O[C@@H]1O[C@H](CO[C@@H]2O[C@H](CO)[C@@H](O)[C@H](O)[C@H]2O)[C@@H](O)[C@H](O)[C@H]1O[C@@H]1O[C@H](CO)[C@@H](O)[C@H](O)[C@H]1O)C(C)(C)O)[C@H]1CC[C@@]2(C)[C@@H]3CC=C4[C@@H](CC[C@H](O[C@@H]5O[C@H](CO[C@@H]6O[C@H](CO)[C@@H](O)[C@H](O)[C@H]6O)[C@@H](O)[C@H](O)[C@H]5O)C4(C)C)[C@]3(C)C(=O)C[C@]12C` [Compound 101], in assay [1], the Umami was 0.88. Also, the Saltiness in assay [2] worked out at 0.19.
`C[C@H](CC[C@@H](O[C@@H]1O[C@H](CO[C@@H]2O[C@H](CO)[C@@H](O)[C@H](O)[C@H]2O)[C@@H](O)[C@H](O)[C@H]1O[C@@H]1O[C@H](CO)[C@@H](O)[C@H](O)[C@H]1O)C(C)(C)O)[C@H]1CC[C@@]2(C)[C@@H]3CC=C4[C@@H](CC[C@H](O[C@@H]5O[C@H](CO[C@@H]6O[C@H](CO)[C@@H](O)[C@H](O)[C@H]6O)[C@@H](O)[C@H](O)[C@H]5O[C@@H]5O[C@H](CO)[C@@H](O)[C@H](O)[C@H]5O)C4(C)C)[C@]3(C)C(=O)C[C@]12C` [Compound 102]: the Umami in assay [1] amounted to 0.47. Besides, the Saltiness in assay [2] is reported as 0.87.
On to `C[C@H](CC[C@@H](O[C@@H]1O[C@H](CO)[C@@H](O)[C@H](O)[C@H]1O[C@@H]1O[C@H](CO)[C@@H](O)[C@H](O)[C@H]1O)C(C)(C)O)[C@H]1CC[C@@]2(C)[C@@H]3CC=C4[C@@H](CC[C@H](O[C@@H]5O[C@H](CO[C@@H]6O[C@H](CO)[C@@H](O)[C@H](O)[C@H]6O)[C@@H](O)[C@H](O)[C@H]5O)C4(C)C)[C@]3(C)C(=O)C[C@]12C` [Compound 103], for which the Umami in assay [1] stood at 0.69. Also, in assay [2], the Saltiness is −0.02.
As to `C[C@H](CC[C@@H](O[C@@H]1O[C@H](CO)[C@@H](O)[C@H](O)[C@H]1O[C@@H]1O[C@H](CO)[C@@H](O)[C@H](O)[C@H]1O)C(C)(C)O)[C@H]1CC[C@@]2(C)[C@@H]3CC=C4[C@@H](CC[C@H](O[C@@H]5O[C@H](CO)[C@@H](O)[C@H](O)[C@H]5O)C4(C)C)[C@]3(C)C(=O)C[C@]12C` [Compound 104], the Umami in assay [1] was 0.42. Also, the Saltiness in assay [2] is −0.08.
Consider `C[C@H](CC[C@@H](O[C@@H]1O[C@H](CO)[C@@H](O)[C@H](O)[C@H]1O)C(C)(C)O)[C@H]1CC[C@@]2(C)[C@@H]3CC=C4[C@@H](CC[C@H](O[C@@H]5O[C@H](CO)[C@@H](O)[C@H](O)[C@H]5O)C4(C)C)[C@]3(C)C(=O)C[C@]12C` [Compound 105], for which the Umami in assay [1] was 0.10. The Saltiness in assay [2] is given as 0.20.
